Experimental data: US11458187B2, “Extracellular histones as biomarkers for prognosis and molecular targets for therapy” (OKLAHOMA MEDICAL RESEARCH FOUNDATION, priority 2007, dated 2022)

How the values were obtained:
[1] = severe sepsis; decreased from about 31%; cited from earlier work
mice = assay: Intravenous histone injection lethality in mice; type: in vivo, mouse; details: co-injection of 5 mg APC/kg with 75 mg/kg histones, n=5
Description: To test the toxic effect of histones in vivo, the inventors injected 75 mg/kg of histones intravenously into mice. […] The calculated histone H3 concentration in the circulation of mice injected with the lethal dose of histones is about 5 times higher than the histone H3 level detected in the baboon plasma 8 hr post challenge with E. coli. […] The ratio of APC to histone H3 used to rescue the mice in vivo is similar to the ratio of APC to histone H3 used in endothelial cytoprotection experiment in vitro.

calf thymus histone H4 = target: T1, calf thymus histone H4 (Bos taurus, UniProt P62803); assay: Cleavage of purified histone H4 by APC (SDS-PAGE); type: biochemical; details: 37° C.
T1 construct: Purified calf thymus histone H3 (top panel) or histone H4 (bottom panel); purchased Roche; host or cells: calf thymus tissue
Description: 0.1 mg/ml histone H4 was incubated with 20 μg/ml human APC in PBS containing 1 mM CaCl2 and MgCl2 at 37° C. for 60 min. Sample was subjected to SDS-PAGE and GelCode Blue (PIERCE) staining or sent to matrix-assisted laser desorption ionization-time of flight facility at the University of Oklahoma Health Science Center for molecular weight determination.

IL-8 = IL-8 production from endothelium (ELISA); type: cell-based, human; details: FIG. 9
Description: (§1) FIG. 9—Histones induce IL-8 production from endothelium. EA.hy926 cells were stimulated with histone (0.1 mg/ml) or histone H3, histone H4 (50 μg/ml) for 24 hr at 37° C. in the absence or presence of APC (6 μg/ml), Anti-TLR2, Anti-TLR4 (10 μg/ml). Conditioned medium was measured for IL-8 production by […] ELISA kit.

IL-6 = IL-6 production from endothelium (ELISA); type: cell-based, human; details: FIG. 8
Description: as §1, with “8—Histones” for “9—Histones”, “IL-6” for “IL-8”

calf thymus histone H3 = assay: Cleavage of purified histone H3 by APC (SDS-PAGE); type: biochemical; details: 100 μg/ml histone H3, indicated concentrations of human APC, 1 hr, 37° C.; FIG. 13C
Description: (FIG. 13C) Purified calf thymus histone H3 (top panel) or histone H4 (bottom panel) (100 μg/ml) was incubated in Opti-MEM medium with the indicated concentrations of human APC for 1 hr at 37° C. Samples were then subjected to SDS-PAGE and coomassie blue staining.

[2] = test system: baboons challenged with a lethal dose of E. coli; details: infusion of APC (Taylor et al., 1987); cited from earlier work
[3] = test system: baboons challenged with a lethal dose of E. coli; assay: Baboon model of sepsis, lethal dose of E. coli with or without infused APC; type: in vivo
Description: Six to 8 week male C57BL/6 mice (Jackson Lab) were used according to an animal protocol approved by Institutional Animal Care and Use Committees of the Oklahoma Medical Research Foundation. Baboon experiments were performed as previously described^5.
To test whether extracellular histones may be involved in the pathogenesis of diseases and if APC can cleave these histones in vivo, the inventors examined frozen archival plasma samples from a non-human primate model of sepsis in which baboons were challenged with a lethal dose of E. coli (Taylor et al., 1987). […] The inventors measured extracellular histones in the plasma from animals challenged with the lethal dose of E. coli either in the absence or presence of infused APC. Intact histone H3 was detected by Western blot in the plasma of the two baboons challenged with the lethal dose of E. coli and reached about 15 μg/ml 8 hours post-challenge (FIG. 14E). The inventors were unable to measure other histones in the same way because those anti-histone antibodies were not adequately sensitive. The increase in histone H3 accompanied the onset of acute renal failure as indicated by a high serum creatinine level, 2.65+/−0.05 mg/dL (normal range: 0.7-1.4 mg/dL) 8 hours post-challenge. […] APC co-infusion protected renal function as indicated by the normal serum creatinine level, 1.15+/−0.15 mg/dL at 8 hours post-challenge. […]

[4] = APC 6 μg/ml, Anti-TLR2, Anti-TLR4 10 μg/ml, 24 hr
[5] = stimulation of EA.hy926 24 hr, serum-free, histones 0.1 mg/ml, histone H3 or H4 50 μg/ml

Substance | mortality [1] | rescue from lethal dose of histones (mice) | cleavage of purified histone H4 (calf thymus histone H4; 100 μg/ml histone H4, indicated concentrations of human APC, 1 hr, FIG. 13C) | cleavage of purified histone H4 (calf thymus histone H4; 0.1 mg/ml histone H4, 20 μg/ml human APC, 60 min, 4-7 KD fragments, FIG. 4B) | inhibition of histone-induced IL-8 production (IL-8; [4]) | inhibition of histone-induced IL-6 production (IL-6; [4]) | cleavage of purified histone H3 (calf thymus histone H3) | survival of baboons [2] | serum creatinine level ([3]; 8 hours post-challenge, APC co-infusion, normal range 0.7-1.4 mg/dL, 2.65+/−0.05 without APC) | cleavage of extracellular histone H3 in plasma (Western blot) ([3]; two animals challenged with a lethal dose of E. coli and administered APC, FIG. 14E) | IL-8 production (IL-8; [5]) | IL-6 production (IL-6; [5])
APC: Human recombinant APC (Xigris) purchased from Eli Lilly; drotrecogin alfa (activated protein C) | about 25% | rescued all of the mice | cleaved histone H3 and H4 in a dose dependent fashion | also cleaved by APC | completely inhibits histone effect on IL-6 and IL-8 production | completely inhibits histone effect on IL-6 and IL-8 production | cleaved histone H3 and H4 in a dose dependent fashion | rescued these animals | 1.15 ± 0.15 mg/dL | can cleave extracellular histones in vivo |  | 
Pam3CSK4 |  |  |  |  |  |  |  |  |  |  | have no effect | have no effect
